Assay results reported in PubChem BioAssay AID328 (DTP/NCI, 2004).
“And” between values parts separate entries of the source, which are not always exact repeats. Identical values can stand only once. Toxic doses and inconclusive results are not listed. How the source made its calls: active means survival T/C of 150% or more; inactive means T/C below 125% in these data.

System: BDF1 mice, P388 leukemia ip, median survival T/C
Assay: NCI In Vivo Anticancer Drug Screen. Data for tumor model P388 Leukemia (intraperitoneal) in B6D2F1 (BDF1) mice
Details: endpoint: median survival time, higher = longer survival
Experimental: The antitumor activity of compounds was measured in mice bearing transplantable tumors. Survival or tumor size were measured and the results are expressed as the measurement made in the treated group (T) divided by the measurement made in the vehicle treated control group (C). The tumor model used in this assay is P388 Leukemia (intraperitoneal) in B6D2F1 (BDF1) mice

[1] = dose: 25.0 mg/kg/injection, schedule: Q01DX009 (ip), vehicle: saline with Tween-80
[2] = dose: 50.0 mg/kg/injection, schedule: Q01DX009 (ip), vehicle: saline with Tween-80
[3] = dose: 50.0 mg/kg/injection, schedule: Q04DX003 (ip), vehicle: saline with Tween-80
[4] = dose: 100.0 mg/kg/injection, schedule: Q01DX009 (ip), vehicle: Klucel (hydroxypropylcellulose) (HPC)
[5] = dose: 200.0 mg/kg/injection, schedule: Q01DX009 (ip), vehicle: Klucel (hydroxypropylcellulose) (HPC)
[6] = dose: 200.0 mg/kg/injection, schedule: Q04DX003 (ip), vehicle: Klucel (hydroxypropylcellulose) (HPC)
[7] = dose: 400.0 mg/kg/injection, schedule: Q01DX009 (ip), vehicle: Klucel (hydroxypropylcellulose) (HPC)
[8] = dose: 400.0 mg/kg/injection, schedule: Q04DX003 (ip), vehicle: Klucel (hydroxypropylcellulose) (HPC)

Measured: T/C

CCOC(=O)c1c(NC(=O)CCl)ssc1=S
inactive: dose: 0.78 mg/kg/injection, schedule: Q01DX009 (ip), vehicle: saline with Tween-80 116 % of control | dose: 1.56 mg/kg/injection, schedule: Q01DX009 (ip), vehicle: saline with Tween-80 116 % of control | dose: 3.12 mg/kg/injection, schedule: Q01DX009 (ip), vehicle: saline with Tween-80 116 % of control | dose: 6.25 mg/kg/injection, schedule: Q01DX009 (ip), vehicle: saline with Tween-80 116 % of control | dose: 12.5 mg/kg/injection, schedule: Q01DX009 (ip), vehicle: saline with Tween-80 114 % of control | [1] 109 % of control | [2] 111 % of control | [3] 102 % of control | dose: 200.0 mg/kg/injection, schedule: Q04DX003 (ip), vehicle: saline with Tween-80 100 % of control | dose: 400.0 mg/kg/injection, schedule: Q04DX003 (ip), vehicle: saline with Tween-80 116 % of control

Brc1cnc[nH]1
inactive: dose: 25.0 mg/kg/injection, schedule: Q01DX009 (ip), vehicle: water 103 % of control | dose: 25.0 mg/kg/injection, schedule: Q04DX003 (ip), vehicle: water 106 % of control | dose: 50.0 mg/kg/injection, schedule: Q01DX009 (ip), vehicle: water 91 % of control | dose: 50.0 mg/kg/injection, schedule: Q04DX003 (ip), vehicle: water 94 % of control and 106 % of control | dose: 100.0 mg/kg/injection, schedule: Q01DX009 (ip), vehicle: water 87 % of control | dose: 100.0 mg/kg/injection, schedule: Q04DX003 (ip), vehicle: water 93 % of control (2×) and 110 % of control | dose: 200.0 mg/kg/injection, schedule: Q01DX009 (ip), vehicle: water 100 % of control | dose: 200.0 mg/kg/injection, schedule: Q04DX003 (ip), vehicle: water 89 % of control and 97 % of control | dose: 300.0 mg/kg/injection, schedule: Q04DX003 (ip), vehicle: water 98 % of control | dose: 400.0 mg/kg/injection, schedule: Q04DX003 (ip), vehicle: water 94 % of control and 99 % of control and 103 % of control

CCOc1cc(-c2nccc3cc(OC)c(OC)cc23)cc(OCC)c1OCC
inactive: [4] 110 % of control | dose: 100.0 mg/kg/injection, schedule: Q04DX003 (ip), vehicle: Klucel (hydroxypropylcellulose) (HPC) 100 % of control | [5] 110 % of control | [6] 100 % of control | [7] 110 % of control | [8] 100 % of control

CCN(CC)c1cc(Cl)c(C=O)cc1[N+](=O)[O-]
inactive: [4] 95 % of control | [5] 104 % of control | [7] 95 % of control

CCCCCCCCCCCCOB(OCCCCCCCCCCCC)OCCCCCCCCCCCC
inactive: [1] 100 % of control | dose: 25.0 mg/kg/injection, schedule: Q04DX003 (ip), vehicle: saline with Tween-80 91 % of control | [2] 108 % of control | [3] 95 % of control | dose: 100.0 mg/kg/injection, schedule: Q01DX009 (ip), vehicle: saline with Tween-80 100 % of control | dose: 100.0 mg/kg/injection, schedule: Q04DX003 (ip), vehicle: saline with Tween-80 116 % of control

N#CCC(=O)O
inactive: dose: 18.75 mg/kg/injection, schedule: Q01DX009 (ip), vehicle: saline with Tween-80 100 % of control | dose: 37.5 mg/kg/injection, schedule: Q01DX009 (ip), vehicle: saline with Tween-80 100 % of control | dose: 75.0 mg/kg/injection, schedule: Q01DX009 (ip), vehicle: saline with Tween-80 90 % of control

CCOC(=O)C1OC12CCCCC2 (centres undefined)
inactive: dose: 100.0 mg/kg/injection, schedule: Q01DX001 (ip), vehicle: Klucel (hydroxypropylcellulose) (HPC) 109 % of control | dose: 200.0 mg/kg/injection, schedule: Q01DX001 (ip), vehicle: Klucel (hydroxypropylcellulose) (HPC) 100 % of control | [6] 100 % of control | dose: 400.0 mg/kg/injection, schedule: Q01DX001 (ip), vehicle: Klucel (hydroxypropylcellulose) (HPC) 113 % of control | [8] 116 % of control

OC1CSC1
inactive: dose: 50.0 mg/kg/injection, schedule: Q01DX009 (ip), vehicle: saline + alcohol 105 % of control | dose: 100.0 mg/kg/injection, schedule: Q01DX009 (ip), vehicle: saline + alcohol 100 % of control | dose: 200.0 mg/kg/injection, schedule: Q01DX009 (ip), vehicle: saline + alcohol 91 % of control | dose: 400.0 mg/kg/injection, schedule: Q01DX009 (ip), vehicle: saline + alcohol 98 % of control

CC(=O)/C(=C\c1ccc(Cl)c(Cl)c1)C(=O)c1ccccc1
inactive: dose: 100.0 mg/kg/injection, schedule: Q04DX003 (ip), vehicle: other 113 % of control | dose: 200.0 mg/kg/injection, schedule: Q04DX003 (ip), vehicle: other 113 % of control
